Measured values reported in PubChem BioAssay AID190 (DTP/NCI, 2004).
Values joined by “and” are separate entries in the source; they are usually repeats but may differ in a detail not shown here. Equal values may be shown once. Toxic doses and inconclusive results are not listed. Rule for the calls: active = survival T/C of 150% or more; inactive = T/C below 125% in these data.

Test system: AKR/Lw mice, AKR lymphoma ip, median survival T/C
Assay: NCI In Vivo Anticancer Drug Screen. Data for tumor model Lymphoma AKR (Transplanted) (intraperitoneal) in AKR/Lw mice
Conditions: endpoint: median survival time, higher = longer survival
Procedure: The antitumor activity of compounds was measured in mice bearing transplantable tumors. Survival or tumor size were measured and the results are expressed as the measurement made in the treated group (T) divided by the measurement made in the vehicle treated control group (C). The tumor model used in this assay is Lymphoma AKR (Transplanted) (intraperitoneal) in AKR/Lw mice

[1] = dose: 100.0 mg/kg/injection, schedule: Q01DX001 (ip), vehicle: saline
[2] = dose: 100.0 mg/kg/injection, schedule: Q01DX001 (ip), vehicle: Klucel (hydroxypropylcellulose) (HPC)
[3] = dose: 200.0 mg/kg/injection, schedule: Q01DX001 (ip), vehicle: Klucel (hydroxypropylcellulose) (HPC)
[4] = dose: 400.0 mg/kg/injection, schedule: Q01DX001 (ip), vehicle: Klucel (hydroxypropylcellulose) (HPC)
[5] = dose: 25.0 mg/kg/injection, schedule: Q04DX003 (ip), vehicle: saline
[6] = dose: 50.0 mg/kg/injection, schedule: Q01DX001 (ip), vehicle: saline
[7] = dose: 150.0 mg/kg/injection, schedule: Q04DX003 (ip), vehicle: saline
[8] = dose: 200.0 mg/kg/injection, schedule: Q01DX001 (ip), vehicle: saline

Measured: T/C

CC(=O)CC(=O)Nc1ccc([N+](=O)[O-])cc1
inactive: dose: 50.0 mg/kg/injection, schedule: Q01DX001 (ip), vehicle: other 100 % of control | dose: 100.0 mg/kg/injection, schedule: Q01DX001 (ip), vehicle: other 98 % of control | dose: 100.0 mg/kg/injection, schedule: Q01DX001 (ip), vehicle: saline with Tween-80 96 % of control | dose: 200.0 mg/kg/injection, schedule: Q01DX001 (ip), vehicle: other 94 % of control | dose: 400.0 mg/kg/injection, schedule: Q01DX001 (ip), vehicle: other 86 % of control | dose: 400.0 mg/kg/injection, schedule: Q01DX001 (ip), vehicle: saline with Tween-80 92 % of control

CC(C)(CCCl)NCc1ccccc1
inactive: [1] 102 % of control

O=C1c2ccccc2-c2ncccc21
inactive: [2] 100 % of control | [3] 120 % of control | [4] 93 % of control

CCCCC(C(=O)OCC)C(CCC1CCCCC1)(C(=O)OCC)C(=O)OCC (stereo not given)
inactive: [2] 110 % of control | [3] 104 % of control

OCC1OC(n2cnc3c(Cl)ncnc32)C(O)C1O (stereo not given)
inactive: dose: 6.2 mg/kg/injection, schedule: Q01DX009 (ip), vehicle: saline 100 % of control | dose: 12.5 mg/kg/injection, schedule: Q01DX009 (ip), vehicle: saline 94 % of control and 96 % of control and 105 % of control | [5] 93 % of control | [6] 100 % of control | dose: 50.0 mg/kg/injection, schedule: Q04DX003 (ip), vehicle: saline 100 % of control and 113 % of control and 116 % of control | [1] 94 % of control and 102 % of control and 110 % of control | dose: 100.0 mg/kg/injection, schedule: Q04DX003 (ip), vehicle: other 88 % of control | [7] 100 % of control | dose: 200.0 mg/kg/injection, schedule: Q01DX009 (ip), vehicle: saline 87 % of control and 101 % of control and 102 % of control | dose: 200.0 mg/kg/injection, schedule: Q04DX003 (ip), vehicle: other 113 % of control | dose: 250.0 mg/kg/injection, schedule: Q04DX003 (ip), vehicle: saline 118 % of control | dose: 400.0 mg/kg/injection, schedule: Q01DX009 (ip), vehicle: saline 90 % of control and 96 % of control | dose: 400.0 mg/kg/injection, schedule: Q04DX003 (ip), vehicle: other 119 % of control and 123 % of control | dose: 500.0 mg/kg/injection, schedule: Q04DX003 (ip), vehicle: saline 88 % of control | dose: 600.0 mg/kg/injection, schedule: Q01DX001 (ip), vehicle: saline 90 % of control and 92 % of control | dose: 600.0 mg/kg/injection, schedule: Q04DX003 (ip), vehicle: saline 90 % of control (2×) and 113 % of control

COc1cc2c(cc1OC)[C@H]1CNC[C@H]1[C@@H](c1ccccc1)C2
inactive: dose: 75.0 mg/kg/injection, schedule: Q04DX003 (ip), vehicle: saline 110 % of control | [1] 105 % of control | [7] 103 % of control | [8] 100 % of control | dose: 400.0 mg/kg/injection, schedule: Q01DX001 (ip), vehicle: saline 97 % of control

COc1ccccc1N1C(N)=NC(N)=NC1(C)C
inactive: dose: 11.0 mg/kg/injection, schedule: Q01DX001 (ip), vehicle: saline 109 % of control | dose: 11.0 mg/kg/injection, schedule: Q04DX003 (ip), vehicle: saline 91 % of control | dose: 16.0 mg/kg/injection, schedule: Q01DX001 (ip), vehicle: saline 88 % of control | dose: 25.0 mg/kg/injection, schedule: Q01DX001 (ip), vehicle: saline 113 % of control | [5] 102 % of control | dose: 37.5 mg/kg/injection, schedule: Q01DX001 (ip), vehicle: saline 102 % of control | dose: 37.5 mg/kg/injection, schedule: Q04DX003 (ip), vehicle: saline 88 % of control | [1] 90 % of control

COc1ccc(N2C(=O)CC(Sc3ccccc3N)C2=O)cc1 (stereo not given)
inactive: [4] 87 % of control

C1CC[N+]2=C(C1)OCCC2
inactive: [6] 94 % of control | [1] 91 % of control | [8] 97 % of control
